Results taken from patent US20100099561A1, “HETEROBICYCLIC ALKYLTHIO-BRIDGED ISOXAZOLINES” (E.I. DU PONT DE NEMOURS AND COMPANY, priority 2008, published 2010).

Legend:
Format in all cases: in vivo
[1] = tested on: barnyardgrass (Echinochloa crus-galli); assay: Test A preemergence, barnyardgrass; conditions: 0 to 100 scale (0 no effect, 100 complete control)
In short: (§1)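 Greenhouse pre/postemergence test, loam–sand soil. Postemergence plants one- to two-leaf, 2–10 cm. Visual injury rating ~10 d after treatment, 0–100 vs untreated.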

[2] = tested on: large crabgrass (Digitaria sanguinalis); assay: Test A preemergence, large crabgrass; conditions: 0 to 100 scale (0 no effect, 100 complete control)
In short: as §1

[3] = tested on: giant foxtail (Setaria faberi); assay: Test A preemergence, giant foxtail; conditions: 0 to 100 scale (0 no effect, 100 complete control)
In short: as §1

[4] = tested on: morningglory (Ipomoea spp.); assay: Test A preemergence, morningglory; conditions: 0 to 100 scale (0 no effect, 100 complete control)
In short: as §1

[5] = tested on: pigweed (Amaranthus retroflexus); assay: Test A preemergence, pigweed; conditions: 0 to 100 scale (0 no effect, 100 complete control)
In short: as §1

[6] = tested on: velvetleaf (Abutilon theophrasti); assay: Test A preemergence, velvetleaf; conditions: 0 to 100 scale (0 no effect, 100 complete control)
In short: as §1

[7] = tested on: wheat (Triticum aestivum); assay: Test A preemergence, wheat; conditions: 0 to 100 scale (0 no effect, 100 complete control)
In short: as §1

[8] = tested on: corn (Zea mays); assay: Test A preemergence, corn; conditions: 0 to 100 scale (0 no effect, 100 complete control)
In short: as §1

[9] = tested on: barnyardgrass (Echinochloa crus-galli); assay: Test A postemergence, barnyardgrass; conditions: 0 to 100 scale (0 no effect, 100 complete control)
In short: as §1

[10] = tested on: large crabgrass (Digitaria sanguinalis); assay: Test A postemergence, large crabgrass; conditions: 0 to 100 scale (0 no effect, 100 complete control)
In short: as §1

[11] = tested on: giant foxtail (Setaria faberi); assay: Test A postemergence, giant foxtail; conditions: 0 to 100 scale (0 no effect, 100 complete control)
In short: as §1

[12] = tested on: morningglory (Ipomoea spp.); assay: Test A postemergence, morningglory; conditions: 0 to 100 scale (0 no effect, 100 complete control)
In short: as §1

[13] = tested on: pigweed (Amaranthus retroflexus); assay: Test A postemergence, pigweed; conditions: 0 to 100 scale (0 no effect, 100 complete control)
In short: as §1

[14] = tested on: velvetleaf (Abutilon theophrasti); assay: Test A postemergence, velvetleaf; conditions: 0 to 100 scale (0 no effect, 100 complete control)
In short: as §1

[15] = tested on: wheat (Triticum aestivum); assay: Test A postemergence, wheat; conditions: 0 to 100 scale (0 no effect, 100 complete control)
In short: as §1

[16] = tested on: corn (Zea mays); assay: Test A postemergence, corn; conditions: 0 to 100 scale (0 no effect, 100 complete control)
In short: as §1

[17] = tested on: rice (Oryza sativa); assay: Test B flooded paddy test, rice; conditions: Flood, scale 0 to 100
In short: (§2)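 Step one: raise plants to 2 leaves. Step two: flood pots 3 cm over the soil and apply compound into the water, keeping this depth. Step three: after 13–15 greenhouse days, score visually versus controls, 0–100, where 100 means complete control.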

[18] = tested on: umbrella sedge (Cyperus difformis); assay: Test B flooded paddy test, umbrella sedge; conditions: Flood, scale 0 to 100
In short: as §2

[19] = tested on: ducksalad (Heteranthera limosa); assay: Test B flooded paddy test, ducksalad; conditions: Flood, scale 0 to 100
In short: as §2

[20] = tested on: barnyardgrass (Echinochloa crus-galli); assay: Test B flooded paddy test, barnyardgrass; conditions: Flood
In short: as §2

[21] = 250 g ai/ha, scale 0 to 100 (0 no effect, 100 complete control)

CC1(C)CC(S(=O)(=O)Cc2c(C(F)(F)F)nc3ccccn3c2=O)=NO1 [Compound 7]
Plant response rating, Barnyardgrass ([1]; 125 g ai/ha): 60
Plant response rating, Barnyardgrass ([1]; 500 g ai/ha): 90
Plant response rating, Crabgrass, Large ([2]; 125 g ai/ha): 60
Plant response rating, Crabgrass, Large ([2]; 500 g ai/ha): 80
Plant response rating, Foxtail, Giant ([3]; 125 g ai/ha): 80
Plant response rating, Foxtail, Giant ([3]; 500 g ai/ha): 90
Plant response rating, Morningglory ([4]; 125 g ai/ha): 0
Plant response rating, Morningglory ([4]; 500 g ai/ha): 0
Plant response rating, Pigweed ([5]; 125 g ai/ha): 0
Plant response rating, Pigweed ([5]; 500 g ai/ha): 0
Plant response rating, Velvetleaf ([6]; 125 g ai/ha): 0
Plant response rating, Velvetleaf ([6]; 500 g ai/ha): 0
Plant response rating, Wheat ([7]; 125 g ai/ha): 0
Plant response rating, Wheat ([7]; 500 g ai/ha): 10
Plant response rating, Corn ([8]; 125 g ai/ha): 0
Plant response rating, Corn ([8]; 500 g ai/ha): 0
Plant response rating, Barnyardgrass ([9]; 125 g ai/ha): 80
Plant response rating, Barnyardgrass ([9]; 500 g ai/ha): 80
Plant response rating, Crabgrass, Large ([10]; 125 g ai/ha): 40
Plant response rating, Crabgrass, Large ([10]; 500 g ai/ha): 80
Plant response rating, Foxtail, Giant ([11]; 125 g ai/ha): 60
Plant response rating, Foxtail, Giant ([11]; 500 g ai/ha): 80
Plant response rating, Morningglory ([12]; 125 g ai/ha): 0
Plant response rating, Morningglory ([12]; 500 g ai/ha): 0
Plant response rating, Pigweed ([13]; 125 g ai/ha): 0
Plant response rating, Pigweed ([13]; 500 g ai/ha): 0
Plant response rating, Velvetleaf ([14]; 125 g ai/ha): 0
Plant response rating, Velvetleaf ([14]; 500 g ai/ha): 20
Plant response rating, Wheat ([15]; 125 g ai/ha): 0
Plant response rating, Wheat ([15]; 500 g ai/ha): 0
Plant response rating, Corn ([16]; 125 g ai/ha): 0
Plant response rating, Corn ([16]; 500 g ai/ha): 0
Plant response rating, Rice ([17]; 62 g ai/ha): 0
Plant response rating, Rice ([17]; 250 g ai/ha): 0
Plant response rating, Sedge, Umbrella ([18]; 62 g ai/ha): 0
Plant response rating, Sedge, Umbrella ([18]; 250 g ai/ha): 0
Plant response rating, Ducksalad ([19]; 62 g ai/ha): 0
Plant response rating, Ducksalad ([19]; 250 g ai/ha): 0
Plant response rating, Barnyardgrass ([20]; 62 g ai/ha, scale 0 to 100): 0
Plant response rating, Barnyardgrass [20, 21]: 0

CC1(C)CC([S+]([O-])Cc2c(C(F)(F)C(F)(F)F)nc3n(c2=O)CCCC3)=NO1 (stereo not drawn) [Compound 19]
Plant response rating, Barnyardgrass ([1]; 125 g ai/ha): 0
Plant response rating, Barnyardgrass ([1]; 500 g ai/ha): 80
Plant response rating, Crabgrass, Large ([2]; 125 g ai/ha): 0
Plant response rating, Crabgrass, Large ([2]; 500 g ai/ha): 80
Plant response rating, Foxtail, Giant ([3]; 125 g ai/ha): 0
Plant response rating, Foxtail, Giant ([3]; 500 g ai/ha): 80
Plant response rating, Morningglory ([4]; 125 g ai/ha): 0
Plant response rating, Morningglory ([4]; 500 g ai/ha): 60
Plant response rating, Pigweed ([5]; 125 g ai/ha): 0
Plant response rating, Pigweed ([5]; 500 g ai/ha): 20
Plant response rating, Velvetleaf ([6]; 125 g ai/ha): 0
Plant response rating, Velvetleaf ([6]; 500 g ai/ha): 0
Plant response rating, Wheat ([7]; 125 g ai/ha): 0
Plant response rating, Wheat ([7]; 500 g ai/ha): 20
Plant response rating, Corn ([8]; 500 g ai/ha): 20
Plant response rating, Barnyardgrass ([9]; 125 g ai/ha): 10
Plant response rating, Barnyardgrass ([9]; 500 g ai/ha): 70
Plant response rating, Crabgrass, Large ([10]; 125 g ai/ha): 0
Plant response rating, Crabgrass, Large ([10]; 500 g ai/ha): 30
Plant response rating, Foxtail, Giant ([11]; 125 g ai/ha): 0
Plant response rating, Foxtail, Giant ([11]; 500 g ai/ha): 50
Plant response rating, Morningglory ([12]; 125 g ai/ha): 0
Plant response rating, Morningglory ([12]; 500 g ai/ha): 20
Plant response rating, Pigweed ([13]; 125 g ai/ha): 0
Plant response rating, Pigweed ([13]; 500 g ai/ha): 10
Plant response rating, Velvetleaf ([14]; 125 g ai/ha): 0
Plant response rating, Velvetleaf ([14]; 500 g ai/ha): 20
Plant response rating, Wheat ([15]; 125 g ai/ha): 0
Plant response rating, Wheat ([15]; 500 g ai/ha): 20
Plant response rating, Corn ([16]; 125 g ai/ha): 0
Plant response rating, Corn ([16]; 500 g ai/ha): 40
Plant response rating, Rice ([17]; 31 g ai/ha): 0
Plant response rating, Rice ([17]; 62 g ai/ha): 0
Plant response rating, Rice ([17]; 125 g ai/ha): 0
Plant response rating, Rice ([17]; 250 g ai/ha): 0
Plant response rating, Sedge, Umbrella ([18]; 31 g ai/ha): 0
Plant response rating, Sedge, Umbrella ([18]; 62 g ai/ha): 0
Plant response rating, Sedge, Umbrella ([18]; 125 g ai/ha): 0
Plant response rating, Sedge, Umbrella ([18]; 250 g ai/ha): 0
Plant response rating, Ducksalad ([19]; 31 g ai/ha): 0
Plant response rating, Ducksalad ([19]; 62 g ai/ha): 0
Plant response rating, Ducksalad ([19]; 125 g ai/ha): 0
Plant response rating, Ducksalad ([19]; 250 g ai/ha): 0
Plant response rating, Barnyardgrass ([20]; 31 g ai/ha, scale 0 to 100): 0
Plant response rating, Barnyardgrass ([20]; 62 g ai/ha, scale 0 to 100): 0
Plant response rating, Barnyardgrass ([20]; 125 g ai/ha, scale 0 to 100): 0
Plant response rating, Barnyardgrass [20, 21]: 0

CCn1c(=O)c(C[S+]([O-])C2=NOC(C)(C)C2)nc2cccnc21 (stereo not drawn) [Compound 38]
Plant response rating, Barnyardgrass ([1]; 125 g ai/ha): 0
Plant response rating, Barnyardgrass ([1]; 500 g ai/ha): 0
Plant response rating, Crabgrass, Large ([2]; 125 g ai/ha): 0
Plant response rating, Crabgrass, Large ([2]; 500 g ai/ha): 0
Plant response rating, Foxtail, Giant ([3]; 125 g ai/ha): 0
Plant response rating, Foxtail, Giant ([3]; 500 g ai/ha): 0
Plant response rating, Morningglory ([4]; 125 g ai/ha): 0
Plant response rating, Morningglory ([4]; 500 g ai/ha): 0
Plant response rating, Pigweed ([5]; 125 g ai/ha): 0
Plant response rating, Pigweed ([5]; 500 g ai/ha): 0
Plant response rating, Velvetleaf ([6]; 125 g ai/ha): 0
Plant response rating, Velvetleaf ([6]; 500 g ai/ha): 0
Plant response rating, Wheat ([7]; 125 g ai/ha): 0
Plant response rating, Wheat ([7]; 500 g ai/ha): 0
Plant response rating, Corn ([8]; 125 g ai/ha): 0
Plant response rating, Corn ([8]; 500 g ai/ha): 0
Plant response rating, Barnyardgrass ([9]; 125 g ai/ha): 20
Plant response rating, Barnyardgrass ([9]; 500 g ai/ha): 30
Plant response rating, Crabgrass, Large ([10]; 125 g ai/ha): 0
Plant response rating, Crabgrass, Large ([10]; 500 g ai/ha): 20
Plant response rating, Foxtail, Giant ([11]; 125 g ai/ha): 0
Plant response rating, Foxtail, Giant ([11]; 500 g ai/ha): 0
Plant response rating, Morningglory ([12]; 125 g ai/ha): 0
Plant response rating, Morningglory ([12]; 500 g ai/ha): 10
Plant response rating, Pigweed ([13]; 125 g ai/ha): 0
Plant response rating, Pigweed ([13]; 500 g ai/ha): 0
Plant response rating, Velvetleaf ([14]; 125 g ai/ha): 0
Plant response rating, Velvetleaf ([14]; 500 g ai/ha): 30
Plant response rating, Wheat ([15]; 125 g ai/ha): 0
Plant response rating, Wheat ([15]; 500 g ai/ha): 10
Plant response rating, Corn ([16]; 125 g ai/ha): 0
Plant response rating, Corn ([16]; 500 g ai/ha): 0
Plant response rating, Rice ([17]; 31 g ai/ha): 0
Plant response rating, Rice ([17]; 62 g ai/ha): 0
Plant response rating, Rice ([17]; 125 g ai/ha): 0
Plant response rating, Rice ([17]; 250 g ai/ha): 0
Plant response rating, Sedge, Umbrella ([18]; 31 g ai/ha): 0
Plant response rating, Sedge, Umbrella ([18]; 62 g ai/ha): 0
Plant response rating, Sedge, Umbrella ([18]; 125 g ai/ha): 0
Plant response rating, Sedge, Umbrella ([18]; 250 g ai/ha): 0
Plant response rating, Ducksalad ([19]; 31 g ai/ha): 0
Plant response rating, Ducksalad ([19]; 62 g ai/ha): 0
Plant response rating, Ducksalad ([19]; 125 g ai/ha): 0
Plant response rating, Ducksalad ([19]; 250 g ai/ha): 0
Plant response rating, Barnyardgrass ([20]; 31 g ai/ha, scale 0 to 100): 0
Plant response rating, Barnyardgrass ([20]; 62 g ai/ha, scale 0 to 100): 0
Plant response rating, Barnyardgrass ([20]; 125 g ai/ha, scale 0 to 100): 0
Plant response rating, Barnyardgrass [20, 21]: 0
